This experiment has as its system SW620/H520 cells, E-cadherin In-Cell Western. Briefly: CDH1 protein re-expression in cancer cells – SW620 and H520 cells, In-Cell Western (AID 651862).

Active and inactive are the calls of the source.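 Rule for the calls: active = tubulin-normalized E-cadherin at least double the DMSO level by western blot, or significantly raised by in-cell western; inactive = the rest.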

In the case of `O=C(NCCCNCc1ccc(O)c(O)c1)c1cc(-c2ccccc2)on1`, the EC50 is 4.56 µM.
The figure for `O=C(NCCCNCc1cnoc1)c1cc(-c2ccccc2)on1` is 12 µM (inactive); for `[N-]=[N+]=Nc1nccc(NCCCNC(=O)c2cc(-c3ccccc3)on2)n1` it is 2.55 µM.
For `O=C(NCCNC(=O)c1nccs1)c1cc(-c2ccccc2)on1`, the EC50 is 3.82 µM.
Turning to `O=C(NCCCNC(=O)c1ccc[nH]c1=O)c1cc(-c2ccccc2)on1`, the EC50 was 2.22 µM.
With `N#Cc1ccc(NCCCNC(=O)c2cc(-c3ccccc3)on2)nc1`, the EC50 is 3.13 µM.

Source of the values: PubChem BioAssay AID651862 (Vanderbilt Specialized Chemistry Center, 2012).
